Data set [1] concerns the target T1, angiotensin conversion enzyme (Oryctolagus cuniculus, UniProt P12822).
T1 construct: with the enzyme isolated from rabbit lungs; from tissue; host or cells: rabbit lungs
T1 sequence (P12822 34-1310): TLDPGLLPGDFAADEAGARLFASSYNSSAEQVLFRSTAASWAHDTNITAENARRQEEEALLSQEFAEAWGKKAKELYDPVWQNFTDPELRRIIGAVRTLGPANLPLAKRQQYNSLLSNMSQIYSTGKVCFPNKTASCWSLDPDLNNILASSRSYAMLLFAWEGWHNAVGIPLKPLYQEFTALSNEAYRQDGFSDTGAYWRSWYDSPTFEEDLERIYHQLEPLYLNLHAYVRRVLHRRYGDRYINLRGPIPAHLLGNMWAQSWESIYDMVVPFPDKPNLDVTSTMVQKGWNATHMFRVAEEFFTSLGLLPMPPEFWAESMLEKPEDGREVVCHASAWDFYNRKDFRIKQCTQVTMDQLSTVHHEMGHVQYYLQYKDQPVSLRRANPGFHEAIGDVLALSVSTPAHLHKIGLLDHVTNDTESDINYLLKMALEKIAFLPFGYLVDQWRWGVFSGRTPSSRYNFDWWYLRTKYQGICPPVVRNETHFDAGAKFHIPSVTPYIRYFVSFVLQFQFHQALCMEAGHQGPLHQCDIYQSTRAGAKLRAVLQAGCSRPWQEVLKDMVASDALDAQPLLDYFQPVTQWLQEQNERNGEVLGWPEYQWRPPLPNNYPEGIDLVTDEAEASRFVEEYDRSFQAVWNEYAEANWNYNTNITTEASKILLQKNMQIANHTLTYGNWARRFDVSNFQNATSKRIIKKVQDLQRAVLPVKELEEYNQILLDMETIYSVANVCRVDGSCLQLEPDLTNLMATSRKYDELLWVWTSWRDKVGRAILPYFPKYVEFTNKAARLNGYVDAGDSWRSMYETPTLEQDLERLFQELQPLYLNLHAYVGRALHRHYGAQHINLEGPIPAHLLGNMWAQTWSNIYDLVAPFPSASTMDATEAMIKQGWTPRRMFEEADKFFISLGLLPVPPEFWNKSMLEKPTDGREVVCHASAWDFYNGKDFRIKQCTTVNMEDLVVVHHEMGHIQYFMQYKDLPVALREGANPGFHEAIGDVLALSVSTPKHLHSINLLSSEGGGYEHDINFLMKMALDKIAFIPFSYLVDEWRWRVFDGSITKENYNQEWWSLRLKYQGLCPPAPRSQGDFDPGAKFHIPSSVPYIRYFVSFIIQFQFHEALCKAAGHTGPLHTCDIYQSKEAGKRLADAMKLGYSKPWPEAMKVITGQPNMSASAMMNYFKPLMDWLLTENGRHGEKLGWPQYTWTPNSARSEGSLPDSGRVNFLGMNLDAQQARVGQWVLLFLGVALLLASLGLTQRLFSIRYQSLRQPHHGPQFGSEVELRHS
The experiment in a line: Inhibition of angiotensin conversion enzyme in vitro (method of Cushman and Cheung). The data set is classed as biochemical. The settings on record: enzyme isolated from rabbit lungs; read-out: I50. The protocol: The inhibition of angiotensin conversion enzyme by the compounds corresponding to general formula (I) is measured, in vitro, with the enzyme isolated from rabbit lungs according to the method by Cushman and Cheung [Biochem.-Pharmacol., 20, 1637, (1971)].
In Table 1 the values of I50 (μM) obtained by using the retroinverted analogues and natural not-modified peptide, which is used as the comparison term, are reported.

Data set [2] has as its system angiotensin conversion enzyme and peptidases. Briefly: Stability: resistance of peptides to angiotensin conversion enzyme and to peptidases. Conditions: after 3 hours of incubation. The data set is classed as in vitro ADME. An excerpt: The stability of peptides of formula (B) and (C) has been verified by determining the resistance of said peptides to the angiotensin conversion enzyme and to peptidases.

In data set [3] the test system is angiotensin conversion enzyme. Conditions: 15 minutes of preincubation with the enzyme; cited from earlier work.

Where no end group is shown, it is not given here. [ ]: non-standard residue; d: D form. pGlu = O=C1CC[C@@H](C(=O)O)N1

With `C[C@@H](C(=O)N[C@H](Cc1ccccc1)C(=O)N[C@H](CCCCN)C(=O)N[C@@H]1CCC(=O)N1)C(=O)N1C[C@@H](Sc2ccccc2)C[C@H]1C(=O)O` [B, gGlp--Dlys--DPhe--(S)m Ala--Pro--(4-allo--SPh)--OH], the IC50 in data set [1] is 7.5 µM. Also, the “resistance towards enzymatic degradation” value in data set [2] is reported as “resistant”. Take “Glp-Lys-Trp-Ala-Pro ([pGlu]KWAP) [BPP5a]”: the “loss of inhibiting activity” value in data set [3] is reported as “complete loss”.

These data come from patent US4728725A, “Retro-inverted peptides analogues of Bradykinin Potentiator BPP5a” (Enichem, S.p.A., priority 1984, dated 1988).
